Here are results for ten compounds from paper PMC7790557, “Pleiotropic Properties of Amphiphilic Dihydropyridines, Dihydropyridones, and Aminovinylcarbonyl Compounds” (Oxidative Medicine and Cellular Longevity, 2020).

Series [1] concerns HT-1080 (human lung fibrosarcoma). Briefly: Cytotoxicity, crystal violet (CV) assay, HT-1080. Conditions: Homo sapiens, HT-1080, 72 h, read-out: HT-1080 IC50 (CV).
Method: (§3) IC50 is the compound concentration (μg/ml) at which 50% of the cells die. […] CV staining can be used to quantify the total DNA of the remaining population and thus is used to determine the number of live cells based on the concentration of the dye which remains after staining.
(§4) Tumor cell lines HT-1080 (human connective tissue fibrosarcoma, ATCC® CCL-121™) and MH-22A (mouse hepatocarcinoma, ECACC, cat. Nr. 96121721) were used.
(§5) HT-1080 and MH-22A cells were seeded in 96-well plates in Dulbecco's modified Eagle's (DMEM) medium containing 10% fetal bovine serum and 4 mM L-glutamine, without antibiotics, and cultivated for 72 h by exposure to different concentrations of compounds. Cell viability was measured using 3-(4,5-dimethylthiazol-2-yl)-2,5-diphenyltetrazolinium bromide (MTT). In brief, after incubating with compounds, the culture medium was removed and fresh medium with 0.2 mg/ml MTT was added in each well of the plate. After incubation (3 h, 37°C, 5% CO2), the medium with MTT was removed, and 200 μl DMSO was added at once to each sample. The samples were tested at 540 nm on a Tecan Infinite M1000 multiplate reader. The IC50 was calculated using the program GraphPad Prism® 3.0.
(§6) For the CV assay, cells were stained with 0.05% crystal violet (Sigma-Aldrich) in 30% methanol for 20 minutes at room temperature. After incubation, the staining solution was removed. The cells were washed 4 times with water. For dye solubilization, 200 μl of a solubilizing solution (0.1 M citrate buffer, pH 4.2 in 50% ethanol; 1 : 1 v/v) was added. The absorbance of the solution was measured using a Tecan Infinite M1000 multiplate spectrophotometer at a wavelength of 570 nm [21].
Series [2] has as its system MH-22A (mouse hepatoma). The series is described as follows: Cytotoxicity, crystal violet (CV) assay, MH-22A. Type of series: cell-based. The settings on record: Mus musculus, read-out: MH-22A IC50 (CV). The procedure: (§1) After incubation, the staining solution was removed. The cells were washed 4 times with water.
Series [3] relates to HT-1080 (human lung fibrosarcoma). Briefly: Cytotoxicity, MTT assay, HT-1080. It is filed as cell-based. Conditions: Homo sapiens, read-out: HT-1080 IC50 (MTT). An excerpt:
(§2) Reduction takes place only when mitochondrial reductase enzymes are active, and therefore, conversion is directly related to the number of viable cells which can be quantified by the absorbance of the solution (between λ = 500 and 600 nm) using a spectrophotometer.

The test system of series [4] is NIH3T3 (mouse embryonic fibroblast). Briefly: Basal cytotoxicity test, Neutral Red Uptake (NRU) assay. The settings on record: for IC50: Mus musculus.
Method: The NRU cytotoxicity assay procedure is based on the ability of viable cells to incorporate and bind neutral red, a supravital dye.
Balb/c NIH 3T3 (mouse Swiss albino embryo fibroblast, ATCC® CRL-1658™) cells (9000 cells/well) were placed into 96-well plates for 24 h in Dulbecco's modified Eagle's medium (DMEM) containing 5% fetal bovine serum. Then, the cells were exposed to the test compound over a range of seven concentrations (1000, 316, 100, 31, 10, 3, and 1 μg/ml) for 24 h. Untreated cells were used as a control. After 24 h, the medium was removed from all plates. Then, 150 μl of neutral red solution was added (0.05 mg/ml NR in DMEM 24 h preincubated at 37°C and then filtered before use through a 0.22 μm syringe filter). Plates were incubated for 3 h, and then, the cells were washed three times with PBS. The dye within viable cells was released by extraction with a mixture of acetic acid, ethanol, and water (1 : 50 : 49). The absorbance of neutral red was measured using a spectrophotometer multiplate reader (Tecan Infinite M1000) at 540 nm. The optical density (OD) was calculated using the following formula: OD (treated cells) × 100/OD (control cells). The IC50 values were calculated using the GraphPad Prism® 3.0 program.
Series [5] deals with NIH3T3. Briefly: in vitro. The settings on record: for LD50 (calculated, NIH3T3): mouse. The source says: Data from the in vitro tests were used for estimating the starting dose for acute oral systemic toxicity tests in the rodent. The in vivo starting dose is an estimated LD50 value calculated by inserting the in vitroIC50 value into a regression formula: log LD50 (mM/kg) = 0.439 log IC50 (mM) + 0.621 [23–25]. […] Using an alternative in vitro method allows the comparison between possibly toxic new compounds and selecting compounds for further study vastly reducing the number of animal experiments.
Additionally, the compound influence on “normal” mouse fibroblasts (NIH3T3) was estimated for the studies of structure-activity relationships and exploration of the effect of substituents.

In series [6] the test system is MH-22A (mouse hepatoma). Briefly: Cytotoxicity, MTT assay, MH-22A. Type of series: cell-based. The settings on record: Mus musculus, read-out: MH-22A IC50 (MTT).
Text: as §2

Series [7] is described as follows: Electrochemical oxidation potentials, cyclic voltammetry. Type of series: physicochemical. Conditions: glassy carbon electrode, dry acetonitrile; for Oxidation potential E^ox: Table 4, vs Ag/Ag+, 0.1 M TBABF4, tested as perchlorates; for electrooxidation potential: cyclic voltammetry. The procedure:
A stationary glassy carbon disk electrode (d = 0.5 mm) served as the working electrode, while the counterelectrode was a Pt wire. The oxidation potentials were measured relative to a Ag/Ag^+ reference electrode. Acetonitrile was dried over P2O5 and distilled; the distillate was stored over CaH2 and redistilled just before use. Recrystallized tetrabutylammonium tetrafluoroborate (TBABF4) was used as a supporting electrolyte at 0.1 M concentration.
The electrochemical oxidation of the selected compounds studied in this work was performed by cyclic voltammetry on a stationary glassy carbon electrode in dry acetonitrile; the data is presented in Table 4. The perchlorates of the tested amphiphiles were obtained from the corresponding bromides by treating their abs. MeOH solutions with excess of conc. HClO4 according to the procedure elaborated by Turovska et al..

A short description of series [8]: in vitro. It is filed as cell-based. The settings on record: human and mouse; summarises both cell lines, CV and MTT; read-out: cytotoxicity on cancer cell lines HT-1080 and MH-22A. The procedure:
as §1

Series [9] in a line: Cytotoxicity, crystal violet (CV) assay, HT-1080. Conditions: human, HT-1080 cells (fibrosarcoma).
Method: as §3, §4, §5, §6
[10] abbreviates: HT-1080, Table 1, 72 h exposure.
Where [11] appears, read: NIH3T3, 24 h, read-out: NIH3T3 IC50 (NR).
Setting [12] is: NIH3T3, 24 h, read-out: NIH3T3 IC50 (NR), Table 1, 24 h exposure.

Like-named read-outs stand apart in the source and are kept apart here.

As for `CCCOCOC(=O)C1=C(C[n+]2ccccc2)NC(C[n+]2ccccc2)=C(C(=O)OCOCCC)C1c1ccccc1OC(F)F.[Br-].[Br-]` [compound 7, 1,1'-((4-(2-(Difluoromethoxy)phenyl)-3,5-bis((propoxymethoxy)carbonyl)-1,4-dihydropyridine-2,6-diyl)bis(methylene))bis(pyridin-1-ium) dibromide], the IC50 was > 100 µg/mL in series [1]; > 100 µg/mL in series [2] (Table 1, 72 h exposure); > 100 µg/mL in series [3] (setting [10]); > 1000 µg/mL in [4] (setting [11]); > 100 µg/mL in series [6] (Table 1, 72 h exposure). Also, in [5], the “LD50 (calculated, NIH3T3)” value is reported as > 2000 mg/kg.

As to `CCCCCCCCCCCCOC(=O)C1=C(C[n+]2ccccc2)NC(C[n+]2ccccc2)=C(C(=O)OCCCCC(F)(F)C(F)(F)C(F)(F)C(F)(F)C(F)(F)C(F)(F)C(F)(F)C(F)(F)F)C1c1ccccc1` (stereo not shown) [compound 23, Dodecyl 5,5,6,6,7,7,8,8,9,9,10,10,11,11,12,12,12-heptadecafluorododecyl 1,4-dihydro-2,6-dimethyl-4-phenylpyridine-3,5-dicarboxylate-2,6-dipyridinium dibromide], the IC50 in series [1] was 50 ± 6 µg/mL; in [2] (Table 1, 72 h exposure), 47 ± 2 µg/mL; in series [3] (setting [10]), 47 ± 8 µg/mL; in series [4] (setting [12]) it was 477 ± 25 µg/mL; in series [6] (Table 1, 72 h exposure), 75 ± 11 µg/mL; in series [8] it was 47 to 75 µg/mL. The “Oxidation potential E^ox” value in series [7] is given as 1.70 V. In addition, the electrooxidation potential in series [7] is 1.69–1.70 V.

As for `CCCCCCCCCCCCCCCCOC(=O)/C=C(\N)C[N+](C)(C)CCCCCCCCCCCC` [compound 44, (Z,E)-N-(2-Amino-4-(hexadecyloxy)-4-oxobut-2-en-1-yl)-N,N-dimethyldodecan-1-aminium bromide], the IC50 is 3 ± 0.4 µg/mL in [1]; 25 ± 3 µg/mL in series [2] (Table 3, 72 h exposure); 3 ± 0.3 µg/mL in series [3] (HT-1080, Table 3, 72 h exposure); ~30 µg/mL in [4] (NIH3T3, read-out: IC50 in NIH3T3 cell lines); 28 ± 6 µg/mL in [6] (Table 3, 72 h exposure). Moreover, in series [4] (Table 3, 24 h exposure), the “NIH3T3 IC50 (NR)” value worked out at 31 ± 8 µg/mL. In addition, the “Oxidation potential E^ox” value in series [7] was 1.24 V. Moreover, the electrooxidation potential in series [7] was 1.24 V. In addition, the “NIH3T3 LD50” value in series [5] (Table 3, calculated from NIH3T3 IC50 by regression formula) is recorded as 697 mg/kg.

With `CCCCCCCCCCCCOC(=O)C1=C(C[n+]2ccccc2)NC(C[n+]2ccccc2)=C(C(=O)OCCCCCCCCCCCC)C1c1ccc(C2C(C(=O)OCCCCCCCCCCCC)=C(C[n+]3ccccc3)NC(C[n+]3ccccc3)=C2C(=O)OCCCCCCCCCCCC)cc1.[Br-].[Br-].[Br-].[Br-]` [compound 26, 1,1',1'',1'''-((1,4-Phenylenebis(3,5-bis((dodecyloxy)carbonyl)-1,4-dihydropyridine-4,2,6-triyl))tetrakis(methylene))tetrakis(pyridin-1-ium) tetrabromide], the IC50 came to 12 ± 4 µg/mL in [1]; 27 ± 6 µg/mL in [2] (72 h); 14 ± 2 µg/mL in series [3] (HT-1080, 72 h); 717 ± 56 µg/mL in [4] (setting [11]); 21 ± 4 µg/mL in [6] (72 h). In series [8], the IC50 at 72 h lay in the range of 12 to 27 µg/mL.

Turning to `O=C1CC(c2ccccc2)C(C(=O)OCCCCC(F)(F)C(F)(F)C(F)(F)C(F)(F)C(F)(F)C(F)(F)C(F)(F)C(F)(F)F)=C([P+](c2ccccc2)(c2ccccc2)c2ccccc2)N1.[Br-]` (stereo not shown) [compound 30, (3-(((5,5,6,6,7,7,8,8,9,9,10,10,11,11,12,12,12-Heptadecafluorododecyl)oxy)carbonyl)-6-oxo-4-phenyl-1,4,5,6-tetrahydropyridin-2-yl)triphenylphosphonium bromide], the IC50 in series [1] was found to be 10 ± 2 µg/mL; in [2] (Table 2, 72 h exposure), 30 ± 11 µg/mL; in series [3] (HT-1080, Table 2, 72 h exposure), 9 ± 2 µg/mL; in [4] (NIH3T3, 24 h, read-out: NIH3T3 IC50 (NR), Table 2, 24 h exposure), 127 ± 11 µg/mL; in [6] (Table 2, 72 h exposure), 39 ± 5 µg/mL. The “times less cytotoxic than dihydropyridone 31 in the NIH3T3 cells” value in [5] (from LD50 1779 mg/kg versus 604 mg/kg) is given as “about 3 times”.

As for `CCOC(=O)C1=C(C[n+]2ccccc2)NC(C[n+]2ccccc2)=C(C(=O)OCC)C1C(=O)OC.[Br-].[Br-]` [compound 8, 1,1'-((3,5-Bis(ethoxycarbonyl)-4-(methoxycarbonyl)-1,4-dihydropyridine-2,6-diyl)-bis(methylene))bis(pyridin-1-ium) dibromide], the IC50 in series [1] was > 100 µg/mL; in series [2] (Table 1, 72 h exposure), > 100 µg/mL; in [3] (setting [10]), > 100 µg/mL; in [4] (setting [11]), > 1000 µg/mL; in series [6] (Table 1, 72 h exposure) it was > 100 µg/mL. Further, the “LD50 (calculated, NIH3T3)” value in [5] was > 2000 mg/kg.

For `O=C(OCCCCC(F)(F)C(F)(F)C(F)(F)C(F)(F)C(F)(F)C(F)(F)C(F)(F)C(F)(F)F)C1=C(C[n+]2ccccc2)NC(C[n+]2ccccc2)=C(C(=O)OCCCCC(F)(F)C(F)(F)C(F)(F)C(F)(F)C(F)(F)C(F)(F)C(F)(F)C(F)(F)F)C1c1ccccc1` [compound 24, Bis(5,5,6,6,7,7,8,8,9,9,10,10,11,11,12,12,12-heptadecafluorododecyl) 1,4-dihydro-2,6-dimethyl-4-phenylpyridine-3,5-dicarboxylate-2,6-dipyridinium bromide], the IC50 in [1] is 100 ± 11 µg/mL; in [2] (Table 1, 72 h exposure), > 100 µg/mL; in series [3] (setting [10]), 100 ± 9 µg/mL; in series [4] (setting [12]), > 1000 µg/mL; in series [6] (Table 1, 72 h exposure) it was > 100 µg/mL; in series [8], ~100 µg/mL. Moreover, the “Oxidation potential E^ox” value in series [7] was 1.69 V. In addition, in [7], the electrooxidation potential is reported as 1.69–1.70 V.

Turning to `CCCCCCCCCCCCOC(=O)C1=C(C[N+](C)(C)C2CCCCC2)NC(C[N+](C)(C)C2CCCCC2)=C(C(=O)OCCCCCCCCCCCC)C1c1ccccc1.[O-][Cl+3]([O-])([O-])[O-].[O-][Cl+3]([O-])([O-])[O-]` [compound 17, N,N'-((3,5-Bis((dodecyloxy)carbonyl)-4-phenyl-1,4-dihydropyridine-2,6-diyl)bis(methylene))bis(N,N-dimethylcyclohexanaminium) diperchlorate], the IC50 in series [1] was 35 ± 9 µg/mL; in series [2] (Table 1, 72 h exposure) it was 54 ± 16 µg/mL; in [3] (setting [10]), 23 ± 3 µg/mL; in series [4] (setting [12]), 59 ± 12 µg/mL; in series [6] (Table 1, 72 h exposure), 35 ± 9 µg/mL; in series [8], 23 to 54 µg/mL.

Regarding `CCOC(=O)C1=C(C[n+]2ccccc2)NC(C[n+]2ccccc2)=C(C(=O)OCC)C1c1ccccc1C(F)(F)F.[Br-].[Br-]` [compound 6, 1,1'-((3,5-Bis(ethoxycarbonyl)-4-(2-(trifluoromethyl)phenyl)-1,4-dihydropyridine-2,6-diyl)bis(methylene))bis(pyridin-1-ium) dibromide], the IC50 was > 100 µg/mL in series [1]; > 100 µg/mL in [2] (Table 1, 72 h exposure); > 100 µg/mL in series [3] (setting [10]); > 1000 µg/mL in [4] (setting [11]); > 100 µg/mL in [6] (Table 1, 72 h exposure). In addition, the “LD50 (calculated, NIH3T3)” value in series [5] is listed as > 2000 mg/kg.

`CCCCCCCCCCCCOC(=O)C1=C(C[n+]2ccccc2)NC(C[n+]2ccccc2)=C(C(=O)OCCCCCCCCCCCC)C1c1ccccc1` [compound 11, 1,1'-((3,5-Bis((dodecyloxy)carbonyl)-4-phenyl-1,4-dihydropyridine-2,6-diyl)bis(methylene))bis(pyridin-1-ium) ditetrafluoroborate]: the IC50 at 72 h in series [9] is ~30 µg/mL. Besides, the IC50 in series [1] was found to be 31 ± 4 µg/mL; in [2] (Table 1, 72 h exposure), 30 ± 6 µg/mL; in series [3] (setting [10]), 28 ± 9 µg/mL; in series [4] (setting [12]), 47 ± 8 µg/mL; in [6] (Table 1, 72 h exposure), 30 ± 9 µg/mL.
